Results on four compounds are retold here after patent US20170216295A1, “CCR9 ANTAGONIST COMPOUNDS” (Merck Sharp & Dohme Corp., priority 2014, published 2017).

Structures are written as SMILES. ≈ marks a conversion by molar mass, not a printed value. Like-named read-outs stand apart in the source and are kept apart here. A value given as a limit tells only on which side of the number the result lay.

Data set [1] is described as follows: Rat plasma protein binding (equilibrium dialysis). In kind it is in vitro ADME. The conditions noted are these: read-out: Rat Plasma Protein Binding (PPB) Fu. On the procedure: (§1) Plasma and Microsome Protein Binding:
(§2) Protein binding was measured via high throughput equilibrium dialysis with the HTDialysis device fitted with a 12,000 to 14,000 Da molecular weight cutoff membrane. Rat plasma or 1 mg/mL rat hepatic microsomes spiked with test article were dialyzed vs. phosphate buffer for 6 hours. Aliquots were removed from both sides of the membrane and diluted with equal volumes of the opposite matrix. Following protein precipitation and centrifugation, the resultant matrix matched supernatants were analyzed by LC-MS to compare the plasma or microsome dialysate test article signal to the buffer signal. Test article stability was monitored during the course of the assay.
Background: Equilibrium dialysis compares concentrations on both sides of a semipermeable membrane.

The target of the next data set is T1, CCR9 receptor (Homo sapiens, UniProt P51686).
T1 sequence (P51686 1-369): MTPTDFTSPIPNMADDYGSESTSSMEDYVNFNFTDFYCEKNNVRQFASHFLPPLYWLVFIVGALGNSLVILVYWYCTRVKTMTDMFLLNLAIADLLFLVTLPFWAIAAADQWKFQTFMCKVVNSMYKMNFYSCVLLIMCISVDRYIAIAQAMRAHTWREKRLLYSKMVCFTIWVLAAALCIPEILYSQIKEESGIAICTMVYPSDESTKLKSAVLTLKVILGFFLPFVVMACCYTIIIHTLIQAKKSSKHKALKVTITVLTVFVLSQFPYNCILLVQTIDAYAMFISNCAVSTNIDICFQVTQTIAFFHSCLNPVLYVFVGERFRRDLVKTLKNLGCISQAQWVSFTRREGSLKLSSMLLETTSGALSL
Kind of data set: Calcium mobilization (Ca FLIPR) assay, antagonist mode vs TECK. Type of data set: cell-based. The note with it: for LipE: LipE = pIC50-clogD; for IC50: cells expressing CCR9, TECK at EC80 0.01 uM, read-out: CCR9 Ca2+ IC50. As to the method:
Calcium Mobilization Assay:
Cells expressing CCR9 receptor (MultiSpan, Hayward, Calif.) were seeded in 384-well plates. Ca^2+ assays were conducted after overnight culture in the plates according to the manufacturer's protocol using Screen Quest™ Fluo-8 no wash kit (AAT Bioquest, Sunnyvale, Calif.). Dye loading buffer was added to the cells and incubated for 45 minutes at 37° C. followed by 15 minutes incubation at room temperature. Compounds in the presence of 0.1% DMSO were applied to the cells during calcium flux measurement. Calcium flux was monitored for 90 seconds with compound application after 10 seconds. For antagonist mode, cells were preincubated with the compound at room temperature for 10 minutes before the application of the control agonist TECK (Preprotech, Rocky Hill, N.J.) at EC80 concentration of 0.01 uM obtained from dose-response curves of control agonist.
Background: A change in cytosolic calcium serves as a functional read-out for many receptors and channels.

The nature of the next data set: Rat PK (i.v./p.o.). Type of data set: in vivo. The conditions noted are these: for clearance: iv, read-out: Rat In vivo CL. As to the method:
Sprague Dawley Rats (n=3) were dosed both intravenously and orally with a solution formulation followed by plasma collection at time points providing sufficient coverage of the absorption, distribution, metabolism and excretion phases of the test article. Test article concentrations at each time point were determined by LC-MS detected bioanalytical analysis. Non-compartmental pharmacokinetic analysis of the intravenous bioanalytical data provided area under the curve, clearance, volume of distribution, and terminal half life parameters while similar analysis of plasma samples from animals dosed orally provided area under the curve, bio-available fraction and oral terminal half life pharmacokinetic parameters.
Rats (n of 3) were dosed both intravenously and orally with the various compounds. Plasma samples were collected at time points chosen to provide sufficient coverage of the absorption, distribution, metabolism and excretion phases of the test compound. LC-MS detected bioanalytical analysis was performed on the plasma samples utilizing a standard curve and quality control samples to provide enough precision and accuracy to determine the concentrations test article for plasma from each time point. Non-compartmental pharmacokinetic analysis of the intravenous bioanalytical data provided area under the curve, clearance, volume of distribution, terminal half life parameters while similar analysis of plasma samples from animals dosed orally provided area under the curve, bio-available fraction and oral terminal half life pharmacokinetic parameters (see FIG. 1).

Data set [2] can be described thus: In-vitro precipitation time in simulated gastric and intestinal fluids. In kind it is physicochemical. The note with it: oral dosing solution. On the procedure:
Dosing solutions at 1 mg/mL for rat PK studies were prepared using either a pH+co-solvent approach or pH+cosolvent+surfactant approach. The total amounts of cosolvent and surfactant used in the solution formulations ranged from 5-8% v/v and q.s. with pH 9 phosphate buffer. Solutions were assessed for their potential for in-vivo precipitation using an in-vitro dilution test (1:1, 1:4 and 1:9) in simulated gastric and intestinal fluids.

The nature of data set [3]: pH-solubility (high-throughput, buffers). In kind it is physicochemical. The note with it: for solubility at 24 h: aqueous with cosolvent or surfactant or cyclodextrin, kinetic from dmso stock; for Sol. pH 4: 1000 ug compound in 1 mL pH 4 buffer; for Sol. pH 7: 1000 ug compound in 1 mL pH 7 buffer; for Sol. pH 9: 1000 ug compound in 1 mL pH 9 buffer. As to the method:
Solubility of representative acidic triazoles was measured in 3 buffer systems (pH 4, 7.4 and 9) using an in-house high-throughput solubility method. A stock solution of test article was prepared in DMA (20 mg/ml) and spiked into each buffer system (20× dilution) to target 1 mg/ml concentration. The samples were vortexed briefly and equilibrated for 24 hr at RT. Samples were then filtered using 0.22u PVDF membrane filters and analyzed for drug concentration using HPLC.

Data set [4] can be described thus: Rat liver microsome clearance. Type of data set: in vitro ADME. The conditions noted are these: for CLint scaled at 2 μM: rat liver microsomes, 1 mg/mL rat hepatic microsomes, NADPH, read-out: Rat Microsome In Vitro CLint; for RLM CL (rat liver microsome hepatic clearance): first value of RLM/HLM cell. As to the method: Microsomal In-Vitro Clearance:
The test articles (2 μM) were incubated for one hour in 1 mg/mL rat hepatic microsomes with 2 mM NADPH at 37° C. with aliquots removed at t=0, 15, 30 and 60 minutes. Incubations were terminated at the specified times by protein precipitation, and samples were centrifuged. Resultant supernants were analyzed by LC-MS/MS for the amount of incubated compound remaining, and the half life (t1/2) and intrinsic microsomal clearance rate (CLint) of each compound was calculated.
For orientation: Liver microsomes are vesicles of endoplasmic reticulum, rich in cytochrome P450 enzymes.

The nature of data set [5]: Rat microsome protein binding (equilibrium dialysis). The note with it: rat liver microsomes, 1 mg/mL rat hepatic microsomes, read-out: Rat Microsomal Binding Fu. Type of data set: in vitro ADME. On the procedure: as §1, §2
In a further data set the test system is Molt-4 cells. Kind of data set: Chemotaxis assay of Molt-4 cells towards TECK. In kind it is cell-based. The note with it: Homo sapiens; Molt-4 cells in HBSS buffer with 0.1% BSA; TECK at EC80. On the procedure:
Molt-4 cells were harvested and re-suspended in HBSS buffer with 0.1% BSA or in 100% human serum. Cell suspensions were mixed with compound solutions for 10 min and then seeded onto the upper chamber of the ChemoTX chemotaxis plates with 5 μm pore size polycarbonate membrane from NeuroProbe (Gaithersburg, Md.). EC80 concentration of TECK was applied in the bottom chamber. After 2 hours of incubation at 37° C., the assay was terminated by removing the upper chamber. The cells migrated into the bottom chamber were quantified with CyQUANT solution from Invitrogen (Grand Island, N.Y.).

Data set [6] can be described thus: Human liver microsome clearance. Type of data set: in vitro ADME. The note with it: second value of RLM/HLM cell.

The solubility is the concentration that dissolves in the medium under given conditions. Turning to `Cc1nc2ncnn2c(O)c1Cc1ccc(C(C)(C)C)cc1` [Compound 6], the fraction unbound at 6 h in data set [1] is 0.01; in [5], 0.703. Besides, the LipE on CCR9 receptor stood at 2.4. In addition, in the data set “Rat PK (i.v./p.o.)”, the “Rat In vivo CL as % Hepatic Blood Flow” value is given as 44%. Also, the clearance in “Rat PK (i.v./p.o.)” (Sprague Dawley, plasma) worked out at 24 mL/min/kg. For the same compound, the bioavailability in “Rat PK (i.v./p.o.)” (Sprague Dawley, plasma, oral, 6: co-solvent (pH 9), 39, 40, 42: co-solvent + surfactant (pH 9), read-out: % F (p.o.)) is 12%. Also, the “Oral AUC/D” value in “Rat PK (i.v./p.o.)” (oral, formulation as in Table 6) is given as 0.08 ug · hr/ml/(mg/kg). Further, the “In-vitro Precipitation Time (Visual assessment), SGF” value in data set [2] (simulated gastric fluid) is listed as “SGF: 0 min”. For the same compound, the “In-vitro Precipitation Time (Visual assessment), SIF” value in data set [2] (simulated intestinal fluid) is recorded as “SIF: 120 min”. Also, the solubility at 24 h in data set [3] (pH 4 buffer, pH 4 (Table 6), read-out: Solubility pH 4) was found to be 13 µg/mL (≈ 43.9 µM); in data set [3] (pH 7.4 buffer, pH 7.4 (Table 6), read-out: Solubility pH 7.4) it was 140 µg/mL (≈ 472 µM); in data set [3] (pH 9 buffer, pH 9 (Table 6), read-out: Solubility pH 9), 1000 µg/mL (≈ 3370 µM). Besides, in [4], the CLint scaled at 2 μM came out at 717 mL/min/kg.

For orientation: IC50 means the concentration that gives 50% inhibition. `COCc1nc2ncnn2c(O)c1Cc1ccc(C(C)(C)C)cc1` [Compound 26] showed a half-inhibitory concentration (IC50) in the data set on Molt-4 cells of 42 nM. In addition, the fraction unbound at 6 h in [1] turned out to be 0.01. For the same compound, the half-maximal inhibitory concentration (IC50) at CCR9 receptor stood at 8 nM. Further, in data set [6], the “HLM CL (human liver microsome hepatic clearance)” value (“HLM CL” below) is reported as 8 mL/min/kg. In addition, the “Rat In vivo CL as % Hepatic Blood Flow” value in “Rat PK (i.v./p.o.)” stood at 10%. Also, the clearance in the data set “Rat PK (i.v./p.o.)” (Sprague Dawley, plasma) came out at 5 mL/min/kg. Besides, in data set [3], the “Sol. pH 4” value amounted to 3 ug/mL, the “Sol. pH 7” value was 135 ug/mL and the “Sol. pH 9” value is given as above 1000 ug/mL. For the same compound, in [4], the “RLM CL (rat liver microsome hepatic clearance)” value (from here on “RLM CL”) is 48 mL/min/kg and the CLint scaled at 2 μM worked out at 373 mL/min/kg. The fraction unbound at 6 h in data set [5] amounted to 0.85.

Compound `CC(C)(C)c1ccc(Cc2c(C3CCC3)nc3ncnn3c2O)cc1` [Compound 27] had an IC50 in the data set on Molt-4 cells of 20 nM. The fraction unbound at 6 h in data set [1] was determined as 0.01. Further, the IC50 on CCR9 receptor was 5 nM. The “HLM CL” value in [6] is 13 mL/min/kg. In “Rat PK (i.v./p.o.)”, the “Rat In vivo CL as % Hepatic Blood Flow” value was found to be 32%. Also, in the data set “Rat PK (i.v./p.o.)” (Sprague Dawley, plasma), the clearance was determined as 17 mL/min/kg. Further, in data set [3], the “Sol. pH 4” value amounted to 4 ug/mL, the “Sol. pH 7” value was found to be 58 ug/mL and the “Sol. pH 9” value turned out to be 910 ug/mL. Moreover, in data set [4], the “RLM CL” value was 37 mL/min/kg and the CLint scaled at 2 μM is 111 mL/min/kg. The fraction unbound at 6 h in data set [5] is 0.255.

The compound `CCc1nc2ncnn2c(O)c1Cc1ccc(C(C)(C)C#N)cc1` [Compound 37] yielded a concentration for half-maximal inhibition (IC50) with Molt-4 cells of 500 nM. For the same compound, the fraction unbound at 6 h in [1] amounted to 0.011. On CCR9 receptor, the LipE worked out at 5.6 and the IC50 was determined as 64 nM. In addition, the “HLM CL” value in data set [6] amounted to 1 mL/min/kg. In the data set “Rat PK (i.v./p.o.)”, the “Rat In vivo CL as % Hepatic Blood Flow” value came to 3%, the “Vd (in words)” value is recorded as “increased”, the “exposure (in words)” value is “highest exposure for the series” and the “half-life (in words)” value was “extended”. Also, the “in vivo CL (in words)” value in the data set “Rat PK (i.v./p.o.)” is recorded as “lower”. Further, in “Rat PK (i.v./p.o.)” (Sprague Dawley, plasma), the clearance was determined as 1 mL/min/kg. For the same compound, in data set [3], the “Sol. pH 4” value was above 1000 ug/mL, the “Sol. pH 7” value was determined as 994 ug/mL and the “Sol. pH 9” value was 982 ug/mL. In data set [4], the “metabolic stability (in words)” value is on record as “increased”, the “RLM CL” value came to 7 mL/min/kg and the CLint scaled at 2 μM came out at 8 mL/min/kg. The fraction unbound at 6 h in data set [5] was found to be 0.85.
